Reference: patent US20260325533A1, “CDK INHIBITOR COMPOUNDS” (ALEKSIA THERAPEUTICS, INC., priority 2023, published 2026)
Like-named read-outs stand apart in the source and are kept apart here.

How the values were obtained:
Format in all cases: biochemical
[1] = biological target: CDK2/CCNE1 (Homo sapiens, UniProt P24941); experiment: CDK2 homogeneous time-resolved fluorescence (HTRF) kinase assay; conditions: CDK2/CCNE
Outline: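 An HTRF format measures CDK2/CCNE1 (3 nM) phosphorylating a 4E-BP1 Thr37/46 peptide at high (1 mM) ATP. Reactions run one hour at 23 °C, then EDTA-quenched and probed with Eu-labelled phospho-specific antibody.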

[2] = biological target: CDK4/CCND3 (Homo sapiens, UniProt P11802); experiment: CDK4 homogeneous time-resolved fluorescence (HTRF) kinase assay; conditions: CDK4/CCND
Outline: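 TR-FRET read (665 nm, or 665/615 ratio) of 4E-BP1 Thr37/46 phosphorylation by 1.5 nM CDK4/CCND3 at 1 mM ATP, 50 nM ULight peptide, 1% DMSO. Reaction ran 60 min at 23 °C after 20 min compound–enzyme preincubation. IC50 from 11-point half-log dilutions, top 10 μM.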

[3] = biological target: CDK6/CCND1 (Homo sapiens, UniProt Q00534); experiment: CDK6 homogeneous time-resolved fluorescence (HTRF) kinase assay; conditions: CDK6/CCND
Outline: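 Assay conditions: HEPES buffer containing 10 mM MgCl2, 1 mM EGTA, 2 mM DTT, 0.01% Tween 20; 1 nM CDK6/CCND1, 50 nM peptide substrate, 1 mM ATP. Detection after 60 min reaction used 2 nM europium antibody with 340 nm excitation. Potency fitted from half-log series, 11 points.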

[4] = biological target: CDK1/CCNB1 (Homo sapiens, UniProt P06493); experiment: CDK1 homogeneous time-resolved fluorescence (HTRF) kinase assay; conditions: CDK1/CCNB
Outline: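 Kinase activity is measured as Lance signal (665 nm, or 665/615 nm ratio) from europium-labelled anti-phospho-Thr37/46 antibody binding ULight-4E-BP1 peptide. Reactions contain 0.5 nM enzyme, 1 mM ATP, 1% DMSO and run 60 min at 23 °C before EDTA quench.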

[5] = x = IC50 >250 nM, read-out: CDK4/CCND IC50 (>250 nM column)
[6] = x = IC50 >250 nM, read-out: CDK1/CCNB IC50 (>250 nM column)
[7] = x = IC50 <25 nM, read-out: CDK2/CCNE IC50 (<25 nM)
[8] = x = IC50 25-250 nM, read-out: CDK6/CCND IC50 (25-250 nM)
[9] = 25-250 nM, read-out: CDK2/CCNE IC50, 25-250 nM
[10] = >250 nM, read-out: CDK4/CCND IC50, >250 nM
[11] = >250 nM, 1 mM ATP, read-out: CDK6/CCND IC50, >250 nM
[12] = >250 nM, read-out: CDK1/CCNB IC50 >250 nM
[13] = <25 nM, read-out: CDK2/CCNE IC50, <25 nM
[14] = 25-250 nM, read-out: CDK4/CCND IC50, 25-250 nM
[15] = 25-250 nM, 1 mM ATP, read-out: CDK6/CCND IC50, 25-250 nM
[16] = <25 nM, read-out: CDK2/CCNE IC50 <25 nM
[17] = 25-250 nM marked x, read-out: CDK4/CCND IC50 25-250 nM
[18] = >250 nM marked x, read-out: CDK6/CCND IC50 >250 nM
[19] = >250 nM marked x, read-out: CDK1/CCNB IC50 >250 nM
[20] = 25-250 nM marked x, read-out: CDK6/CCND IC50 25-250 nM
[21] = 25-250 nM marked x, read-out: CDK1/CCNB IC50 25-250 nM

Sequence of CDK6/CCND1 (Q00534 whole entry): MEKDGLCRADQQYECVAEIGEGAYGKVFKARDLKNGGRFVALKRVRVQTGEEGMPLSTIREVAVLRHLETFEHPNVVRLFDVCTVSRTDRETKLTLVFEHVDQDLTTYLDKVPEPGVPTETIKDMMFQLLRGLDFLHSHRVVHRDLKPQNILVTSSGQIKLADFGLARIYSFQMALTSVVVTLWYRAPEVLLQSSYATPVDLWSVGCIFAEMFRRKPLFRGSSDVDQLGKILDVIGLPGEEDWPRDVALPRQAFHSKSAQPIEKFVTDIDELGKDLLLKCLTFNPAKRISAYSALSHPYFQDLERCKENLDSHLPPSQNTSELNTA
Sequence of CDK6/CCND1 (P24385 whole entry partner): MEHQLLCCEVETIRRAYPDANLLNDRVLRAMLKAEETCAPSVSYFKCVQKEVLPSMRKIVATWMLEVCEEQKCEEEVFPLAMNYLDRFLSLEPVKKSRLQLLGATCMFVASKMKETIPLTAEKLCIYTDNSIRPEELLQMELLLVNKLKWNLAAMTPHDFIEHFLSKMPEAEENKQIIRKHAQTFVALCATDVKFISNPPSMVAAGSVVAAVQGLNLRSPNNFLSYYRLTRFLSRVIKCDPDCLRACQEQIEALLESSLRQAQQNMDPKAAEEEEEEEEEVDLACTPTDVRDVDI
Sequence of CDK1/CCNB1 (P06493 whole entry): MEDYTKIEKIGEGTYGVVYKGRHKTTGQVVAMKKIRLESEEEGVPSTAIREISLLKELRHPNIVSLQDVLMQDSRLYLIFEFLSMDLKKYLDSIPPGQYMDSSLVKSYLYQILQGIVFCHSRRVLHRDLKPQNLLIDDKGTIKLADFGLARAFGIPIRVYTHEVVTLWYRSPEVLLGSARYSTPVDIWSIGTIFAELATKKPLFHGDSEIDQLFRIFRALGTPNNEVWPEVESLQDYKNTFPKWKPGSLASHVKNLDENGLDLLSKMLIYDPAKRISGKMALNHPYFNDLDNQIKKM
Sequence of CDK1/CCNB1 (P14635 whole entry partner): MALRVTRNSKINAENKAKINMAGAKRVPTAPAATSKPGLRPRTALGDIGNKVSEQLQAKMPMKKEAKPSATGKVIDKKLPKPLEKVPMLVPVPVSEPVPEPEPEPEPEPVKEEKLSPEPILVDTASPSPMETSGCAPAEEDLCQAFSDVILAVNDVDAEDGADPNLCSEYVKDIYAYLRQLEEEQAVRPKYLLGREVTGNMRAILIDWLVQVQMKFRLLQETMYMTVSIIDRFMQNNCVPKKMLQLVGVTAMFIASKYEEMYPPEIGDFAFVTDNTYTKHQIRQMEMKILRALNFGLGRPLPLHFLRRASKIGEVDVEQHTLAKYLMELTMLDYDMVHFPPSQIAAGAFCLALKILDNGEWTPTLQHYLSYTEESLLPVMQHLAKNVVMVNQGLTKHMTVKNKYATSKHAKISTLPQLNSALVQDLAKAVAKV
Sequence of CDK4/CCND3 (P11802 whole entry): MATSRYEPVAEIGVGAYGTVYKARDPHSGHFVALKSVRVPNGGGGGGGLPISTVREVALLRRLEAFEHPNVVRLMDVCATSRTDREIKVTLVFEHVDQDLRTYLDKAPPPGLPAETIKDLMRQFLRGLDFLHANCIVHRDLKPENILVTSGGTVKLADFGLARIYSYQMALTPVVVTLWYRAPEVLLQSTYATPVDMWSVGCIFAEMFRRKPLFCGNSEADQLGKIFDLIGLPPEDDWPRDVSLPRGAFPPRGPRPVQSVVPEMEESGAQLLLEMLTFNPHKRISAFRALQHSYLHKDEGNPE
Sequence of CDK4/CCND3 (P30281 whole entry partner): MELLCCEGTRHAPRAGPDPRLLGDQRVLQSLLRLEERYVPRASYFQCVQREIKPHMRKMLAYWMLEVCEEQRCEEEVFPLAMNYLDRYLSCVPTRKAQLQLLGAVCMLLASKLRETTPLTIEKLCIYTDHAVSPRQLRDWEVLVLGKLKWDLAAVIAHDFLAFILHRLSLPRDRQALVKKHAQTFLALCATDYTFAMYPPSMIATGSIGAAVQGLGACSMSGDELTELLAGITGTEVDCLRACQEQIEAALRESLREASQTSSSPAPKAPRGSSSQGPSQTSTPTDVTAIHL

## CS(=N)(=O)c1ccc(Nc2cc3c(C#Cc4cccnc4N)nccc3cn2)cc1 (single isomer, unassigned) [Ex 480, (4-((5-((2-aminopyridin-3-yl)ethynyl)-2,6-naphthyridin-3-yl)amino)phenyl)(imino)(methyl)-l6-sulfanone]
[1]; x = IC50 25-250 nM, read-out: CDK2/CCNE IC50 (25-250 nM)
  IC50: 25 to 250 nM
[2]; [5]
  IC50: > 250 nM
[3]; x = IC50 >250 nM, read-out: CDK6/CCND IC50 (>250 nM column)
  IC50: > 250 nM
[4]; [6]
  IC50: > 250 nM

## CC(O)CN1CCC(C#Cc2nccc3cnc(Nc4ccc(S(C)(=O)=O)cc4)cc23)CC1 (single isomer, unassigned) [Ex 607, 1-(4-((7-((4-(methylsulfonyl)phenyl)amino)-2,6-naphthyridin-1-yl)ethynyl)piperidin-1-yl)propan-2-ol]
[1]; [7]
  IC50: < 25 nM
[2]; [5]
  IC50: > 250 nM
[3]; [8]
  IC50: 25 to 250 nM
[4]; [6]
  IC50: > 250 nM

## Cc1c(-c2nccc3cnc(Nc4ccc(S(=N)(N)=O)cc4)cc23)ccc2c1cnn2CC(O)(C(F)(F)F)C(F)(F)F (single isomer, unassigned) [Ex 679, 4-((5-(4-methyl-1-(3,3,3-trifluoro-2-hydroxy-2-(trifluoromethyl)propyl)-1H-indazol-5-yl)-2,6-naphthyridin-3-yl)amino)benzenesulfonimidamide]
[1]; [7]
  IC50: < 25 nM
[2]; x = IC50 25-250 nM, read-out: CDK4/CCND IC50 (25-250 nM)
  IC50: 25 to 250 nM
[3]; [8]
  IC50: 25 to 250 nM
[4]; x = IC50 25-250 nM, read-out: CDK1/CCNB IC50 (25-250 nM)
  IC50: 25 to 250 nM

## Cc1c(-c2nccc3cnc(Nc4ccc(S(=N)(=O)NC5CCC5)cc4)cc23)ccc2c1cnn2CC(O)(C(F)(F)F)C(F)(F)F (single isomer, unassigned) [Ex 680, N-cyclobutyl-4-((5-(4-methyl-1-(3,3,3-trifluoro-2-hydroxy-2-(trifluoromethyl)propyl)-1H-indazol-5-yl)-2,6-naphthyridin-3-yl)amino)benzenesulfonimidamide]
[1]; [9]
  IC50: 25 to 250 nM
[2]; [10]
  IC50: > 250 nM
[3]; [11]
  IC50: > 250 nM
[4]; [12]
  IC50: > 250 nM

## Cc1c(-c2nccc3cnc(Nc4ccc(S(=N)(=O)NC5CC5)cc4)cc23)ccc2c1cnn2CC(O)(C(F)(F)F)C(F)(F)F (single isomer, unassigned) [Ex 681, N-cyclopropyl-4-((5-(4-methyl-1-(3,3,3-trifluoro-2-hydroxy-2-(trifluoromethyl)propyl)-1H-indazol-5-yl)-2,6-naphthyridin-3-yl)amino)benzenesulfonimidamide]
[1]; [13]
  IC50: < 25 nM
[2]; [14]
  IC50: 25 to 250 nM
[3]; [11]
  IC50: > 250 nM
[4]; [12]
  IC50: > 250 nM

## CNS(=N)(=O)c1ccc(Nc2cc3c(-c4ccc5c(cnn5CC(O)(C(F)(F)F)C(F)(F)F)c4C)nccc3cn2)cc1 (single isomer, unassigned) [Ex 683, N-methyl-4-((5-(4-methyl-1-(3,3,3-trifluoro-2-hydroxy-2-(trifluoromethyl)propyl)-1H-indazol-5-yl)-2,6-naphthyridin-3-yl)amino)benzenesulfonimidamide]
[1]; [13]
  IC50: < 25 nM
[2]; [14]
  IC50: 25 to 250 nM
[3]; [15]
  IC50: 25 to 250 nM
[4]; [12]
  IC50: > 250 nM

## Cc1c(-c2nccc3cnc(Nc4ccc(S(=N)(=O)Nc5ccccc5)cc4)cc23)ccc2c1cnn2CC(O)(C(F)(F)F)C(F)(F)F (single isomer, unassigned) [Ex 685, 4-((5-(4-methyl-1-(3,3,3-trifluoro-2-hydroxy-2-(trifluoromethyl)propyl)-1H-indazol-5-yl)-2,6-naphthyridin-3-yl)amino)-N-phenylbenzenesulfonimidamide]
[1]; [9]
  IC50: 25 to 250 nM
[2]; [10]
  IC50: > 250 nM
[3]; [11]
  IC50: > 250 nM
[4]; [12]
  IC50: > 250 nM

## CC1(C)C(=O)Nc2cc(C#Cc3nccc4cnc(Nc5ccc(S(=N)(=O)NC6CCC6)cc5)cc34)ccc21 (single isomer, unassigned) [Ex 688, N-cyclobutyl-4-((5-((3,3-dimethyl-2-oxoindolin-6-yl)ethynyl)-2,6-naphthyridin-3-yl)amino)benzenesulfonimidamide]
[1]; [13]
  IC50: < 25 nM
[2]; [14]
  IC50: 25 to 250 nM
[3]; [15]
  IC50: 25 to 250 nM
[4]; [12]
  IC50: > 250 nM

## CCNS(=N)(=O)c1ccc(Nc2cc3c(-c4ccc5c(cnn5CC(O)(C(F)(F)F)C(F)(F)F)c4C)nccc3cn2)cc1 (single isomer, unassigned) [Ex 692, N-ethyl-4-((5-(4-methyl-1-(3,3,3-trifluoro-2-hydroxy-2-(trifluoromethyl)propyl)-1H-indazol-5-yl)-2,6-naphthyridin-3-yl)amino)benzenesulfonimidamide]
[1]; [13]
  IC50: < 25 nM
[2]; [14]
  IC50: 25 to 250 nM
[3]; [15]
  IC50: 25 to 250 nM
[4]; [12]
  IC50: > 250 nM

## CC(C)S(=N)(=O)c1ccc(Nc2cc3c(C#Cc4cc5c(cc4N)C(C)(C)C(=O)N5)nccc3cn2)cc1 (single isomer, unassigned) [Example 270, 5-amino-3,3-dimethyl-6-((7-((4-(propan-2-ylsulfonimidoyl)phenyl)amino)-2,6-naphthyridin-1-yl)ethynyl)indolin-2-one]
[1]; [16]
  IC50: < 25 nM
[2]; [17]
  IC50: 25 to 250 nM
[3]; [18]
  IC50: > 250 nM
[4]; [19]
  IC50: > 250 nM

## CC(C)S(=N)(=O)c1ccc(Nc2cc3c(C#Cc4ccc5c(c4)NC(=O)C5(C)CCO)nccc3cn2)cc1 (single isomer, unassigned) [Example 271, 3-(2-hydroxyethyl)-3-methyl-6-((7-((4-(propan-2-ylsulfonimidoyl)phenyl)amino)-2,6-naphthyridin-1-yl)ethynyl)indolin-2-one]
[1]; [16]
  IC50: < 25 nM
[2]; [17]
  IC50: 25 to 250 nM
[3]; [20]
  IC50: 25 to 250 nM
[4]; [21]
  IC50: 25 to 250 nM

## N=S(=O)(c1ccc(Nc2cc3c(C#Cc4ccc5c(c4)NC(=O)C54CC4)nccc3cn2)c(F)c1)C1COC1 (single isomer, unassigned) [Example 275, 6′-((7-((2-fluoro-4-(oxetane-3-sulfonimidoyl)phenyl)amino)-2,6-naphthyridin-1-yl)ethynyl)spiro[cyclopropane-1,3′-indolin]-2′-one]
[1]; [16]
  IC50: < 25 nM
[2]; [17]
  IC50: 25 to 250 nM
[3]; [18]
  IC50: > 250 nM
[4]; [19]
  IC50: > 250 nM

## CC(C)S(=N)(=O)c1ccc(Nc2cc3c(C#Cc4ccc5c(c4)NC(=O)C5(C)O)nccc3cn2)cc1 (single isomer, unassigned) [Example 279, 3-hydroxy-3-methyl-6-((7-((4-(propan-2-ylsulfonimidoyl)phenyl)amino)-2,6-naphthyridin-1-yl)ethynyl)indolin-2-one]
[1]; [16]
  IC50: < 25 nM
[2]; [17]
  IC50: 25 to 250 nM
[3]; [20]
  IC50: 25 to 250 nM
[4]; [21]
  IC50: 25 to 250 nM

## COc1cc(S(=N)(=O)C2CC2)ccc1Nc1cc2c(C#Cc3ccc4c(c3)NC(=O)C43CCC3)nccc2cn1 (single isomer, unassigned) [Example 296, 6′-((7-((4-(cyclopropanesulfonimidoyl)-2-methoxyphenyl)amino)-2,6-naphthyridin-1-yl)ethynyl)spiro[cyclobutane-1,3′-indolin]-2′-one]
[1]; [16]
  IC50: < 25 nM
[2]; >250 nM marked x, read-out: CDK4/CCND IC50 >250 nM
  IC50: > 250 nM
[3]; [18]
  IC50: > 250 nM
[4]; [19]
  IC50: > 250 nM

## Cc1cc2c(cc1C#Cc1nccc3cnc(Nc4ccc(S(=N)(=O)C(C)C)cc4)cc13)NC(=O)C2(C)C (single isomer, unassigned) [Example 315, 3,3,5-trimethyl-6-((7-((4-(propan-2-ylsulfonimidoyl)phenyl)amino)-2,6-naphthyridin-1-yl)ethynyl)indolin-2-one]
[1]; [16]
  IC50: < 25 nM
[2]; [17]
  IC50: 25 to 250 nM
[3]; [18]
  IC50: > 250 nM
[4]; [19]
  IC50: > 250 nM
